Reference: the SangsterLogP compilation

Assay: method code SF-AS, from Yamada, T.; Tsukamoto, Y.; Shimamura, H.; Banno, S.; Sato, M. (1983). Pyridazinones 4. synthesis anti secretory and anti ulcer activities of urea derivatives. Eur J Med Chem, 18(3)209-214.
In the case of `O=C(NCCCCn1nc(-c2ccccc2)ccc1=O)NC1CCCCC1`, the logP is reported as 1.99. `CC(C)NC(=O)NCCCCn1nc(-c2ccccc2)ccc1=O` gave a logP of 1.91. `CNC(=O)NCCCCCCCCn1nc(-c2ccccc2)ccc1=O` showed a logP of 0.84. `CCN(CC)C(=O)NCCCCn1nc(-c2ccccc2)ccc1=O` gave a logP of 1.89. Compound `CN(C)C(=O)NCCCn1nc(-c2ccccc2)ccc1=O` has a logP of 1.61. For `NC(=O)NCCCCCCn1nc(-c2ccccc2)ccc1=O`, the logP was 1.82. For `CNC(=O)NCCCCCn1nc(-c2ccccc2)ccc1=O`, the logP was 1.26. `NC(=O)NCCCn1nc(-c2ccccc2)ccc1=O` gave a logP of 0.69. Compound `NC(=O)NCCCCCn1nc(-c2ccccc2)ccc1=O` has a logP of 1.08. Compound `CN(C)C(=O)NCCCCCCn1nc(-c2ccccc2)ccc1=O` has a logP of 1.45. For `NC(=O)NCCCCn1nc(-c2ccccc2)ccc1=O`, the logP was 1.21. With `CNC(=O)NCCCn1nc(-c2ccccc2)ccc1=O` the logP was 1.16. Compound `CNC(=O)NCCn1nc(-c2ccccc2)ccc1=O` has a logP of 0.39. Work on `O=C(NCCCCn1nc(-c2ccccc2)ccc1=O)Nc1ccccc1` yielded a logP of 2.32. `CCN(CC)C(=O)NCCCn1nc(-c2ccccc2)ccc1=O` gave a logP of 1.72. With `CN(C)C(=O)NCCCCCn1nc(-c2ccccc2)ccc1=O` the logP was 1.74. Work on `CCNC(=O)NCCCCCn1nc(-c2ccccc2)ccc1=O` yielded a logP of 1.76. `CC(C)(C)NC(=O)NCCCCn1nc(-c2ccccc2)ccc1=O` gave a logP of 2.07. Compound `CCNC(=O)NCCCn1nc(-c2ccccc2)ccc1=O` has a logP of 1.68. For `CNC(=O)NCCCCCCCn1nc(-c2ccccc2)ccc1=O`, the logP was 1.06. `CCCCNC(=O)NCCCCn1nc(-c2ccccc2)ccc1=O` gave a logP of 2.2. With `CNC(=O)NCCCCn1nc(-c2ccccc2)ccc1=O` the logP was 1.23. For `CNC(=O)NCCCCCCn1nc(-c2ccccc2)ccc1=O`, the logP was 1.31. For `CN(C)C(=O)NCCCCn1nc(-c2ccccc2)ccc1=O`, the logP was 1.58. Work on `O=C(NCCCCCn1nc(-c2ccccc2)ccc1=O)NC1CCCCC1` yielded a logP of 2.03. With `CCNC(=O)NCCCCn1nc(-c2ccccc2)ccc1=O` the logP was 1.83. `CCCNC(=O)NCCCCn1nc(-c2ccccc2)ccc1=O` gave a logP of 1.71. Work on `Cc1ccc(S(=O)(=O)NC(=O)NCCCCn2nc(-c3ccccc3)ccc2=O)cc1` yielded a logP of 1.77. `CCN(CC)C(=O)NCCCCCCn1nc(-c2ccccc2)ccc1=O` gave a logP of 1.85. Compound `NC(=O)NCCn1nc(-c2ccccc2)ccc1=O` has a logP of 0.52. Work on `CCNC(=O)NCCCCCCn1nc(-c2ccccc2)ccc1=O` yielded a logP of 1.81.
